Measured values published in PubChem BioAssay (NCI).
Where “and” joins values, the source holds several entries; their conditions need not be identical. Equal entries are not always repeated.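 The compound was tested at five concentrations on cells cultured in 96-well plates, with a 48-hour exposure period. At the GI50, growth is halved. The concentration for full growth arrest is given as TGI.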

Key:
Assay in all cases: NCI-60 cell line screen, 48 h
[1] = tested on: CCRF-CEM leukemia
[2] = tested on: RPMI-8226 leukemia
[3] = tested on: NCI-H23 lung
[4] = tested on: MDA-MB-231 breast
[5] = tested on: HS 578T breast
[6] = tested on: OVCAR-3 ovarian
[7] = tested on: SNB-19 CNS
[8] = tested on: TK-10 renal
[9] = tested on: NCI-H226 lung
[10] = tested on: KM12 colon

Compound	GI50 [1]	TGI [1]	GI50 [2]	TGI [2]	GI50 [3]	TGI [3]	GI50 [4]	TGI [4]	GI50 [5]	TGI [5]	GI50 [6]	TGI [6]	GI50 [7]	TGI [7]	GI50 [8]	TGI [8]	GI50 [9]	TGI [9]	GI50 [10]	TGI [10]
O=C([O][Hg][CH2]C1COC([CH2][Hg][O]C(=O)c2ccccc2)CO1)c1ccccc1 (configuration not stated)	0.958 µM and 1.17 µM	3.64 µM	1.97 µM and 2.14 µM	8.46 µM and 6.07 µM	9.82 µM	23.3 µM	19.3 µM and 4.48 µM	41.9 µM and 16.4 µM	21.8 µM	82.6 µM	7.93 µM	21.9 µM	19.6 µM and 6.18 µM	43.2 µM and 21.9 µM	10.5 µM and 1.85 µM	19 µM and 3.33 µM	20.2 µM and 6.31 µM	39.1 µM and 34 µM	31.1 µM	46 µM
O=C(CF)N(O)c1ccc(/C=C/c2ccccc2)cc1	2.16 µM	> 100 µM	21.3 µM	> 100 µM	3.39 µM	98.4 µM	21.8 µM	> 100 µM	24.1 µM	> 91.5 µM	3.28 µM	19.7 µM	8.65 µM	> 100 µM	3.38 µM	27.5 µM	0.77 µM	3.24 µM	16.5 µM	> 100 µM
Cn1nnnc1N/N=C/c1ccccc1		> 10 µM		> 10 µM		> 10 µM		> 10 µM		> 10 µM		> 10 µM		> 10 µM		> 10 µM		> 10 µM		> 10 µM
O=C1C2=Nc3ccccc3C(O)N2c2ccccc21 (configuration not stated)		> 100 µM		> 100 µM		28.8 µM		> 100 µM		> 100 µM		56.3 µM		> 100 µM		> 100 µM		77.3 µM		> 100 µM
CCOC(=O)C1=C(C)NC2SC(=O)/C(=C\c3ccccc3O)N2C1c1ccccc1 (configuration not stated)	10.2 µM	75.2 µM	18.6 µM	53.6 µM	24.5 µM	53.5 µM	33.8 µM	88.4 µM	17.4 µM	50.2 µM	20.4 µM	49.9 µM	31.5 µM	> 100 µM	21.3 µM	49 µM	29 µM	90.4 µM	16.6 µM	43.5 µM
O=C(Nc1ccc(Cl)cc1F)c1cc(I)ccc1O	2.78 µM	9.77 µM	0.737 µM	5.01 µM	1.78 µM	6.59 µM	1.67 µM	7.49 µM	1.14 µM	7.29 µM	1.66 µM	16.1 µM	0.714 µM	92 µM	4.21 µM	16.1 µM	1.94 µM	7.14 µM	2.15 µM	4.98 µM
COc1cccc2c1-c1c(c3ccc([N+](=O)[O-])cc3c(=O)n1CCCCl)C2=O	1.5 µM	> 50 µM	3.69 µM	> 50 µM	24.4 µM	> 50 µM	29.5 µM	> 50 µM	25.2 µM	> 50 µM	> 50 µM	> 50 µM	12.4 µM	> 50 µM	11.8 µM	38.9 µM	5.82 µM	41.5 µM	> 50 µM	> 50 µM
CC(=O)O[C@H](C[C@H](C(C)C)N(C)C(=O)[C@@H](NC(=O)[C@H]1CCCCN1C)C(C)C)c1nc(C(=O)N[C@@H](Cc2ccccc2)C[C@H](C)C(=O)O)c(C(C)C)s1	< 0.00333 µM	> 33.3 µM	< 0.00333 µM	> 22.6 µM	< 0.00333 µM	> 33.3 µM	< 0.00333 µM	> 15.5 µM	< 0.00333 µM	3.08 µM	< 0.00333 µM	0.00598 µM	< 0.00333 µM	> 33.3 µM	0.475 µM	> 33.3 µM	0.00335 µM	0.382 µM	< 0.00333 µM	
COC(=O)c1ccc(NC(=O)Nc2ccc3oc(=O)c4ccccc4c3c2)cc1	0.177 µM	21.7 µM	20.3 µM	> 100 µM	71.4 µM	> 100 µM	23.7 µM	55.9 µM		29.7 µM	29.5 µM	54.6 µM	33 µM	89.8 µM	> 100 µM	> 100 µM	64.1 µM	> 100 µM	> 100 µM	> 100 µM
CC/C=C\C/C=C\C[C@H](O)C/C=C1/C(=O)C=C[C@@H]1C/C=C\CCCC(=O)O	2.17 µM	14 µM	2.63 µM	12.1 µM	4.09 µM	17.1 µM	7.94 µM	44.4 µM	28.4 µM	> 100 µM	3.23 µM	12.7 µM	8.75 µM	24.3 µM	8.06 µM	21.1 µM	2.57 µM	5.86 µM	3.06 µM	11.5 µM
Cn1c(O)c(C(/C=C/c2ccccc2)=NCCN=C(/C=C/c2ccccc2)c2c(O)n(C)c(=O)n(C)c2=O)c(=O)n(C)c1=O	12.4 µM	> 50 µM	9.3 µM	30.4 µM	15 µM	> 50 µM	20.9 µM	> 50 µM	13.4 µM	34.7 µM	21 µM	> 50 µM	21.6 µM	> 50 µM	23.7 µM	> 50 µM	24.6 µM	> 50 µM	14.1 µM	> 50 µM
O=C(O)CCC(=O)c1ccc2ccc3cccc4ccc1c2c34		> 100 µM		> 100 µM		> 100 µM		> 100 µM		> 100 µM		> 100 µM		> 100 µM		> 100 µM		> 100 µM		> 100 µM
O=C(Nc1ccc(Oc2ccc3nc(NC(=O)c4ccccc4)[nH]c3c2)cc1)Nc1cc(C(F)(F)F)ccc1F	0.657 µM	> 9.17 µM	0.792 µM	3.86 µM	0.93 µM	13 µM	2.05 µM	> 22.9 µM	1.07 µM	11.6 µM	1.04 µM	6.12 µM	5.56 µM	> 25 µM	2.61 µM	22 µM	0.603 µM	3.97 µM	0.244 µM	2 µM
COc1ccc(C2=NN(C(=O)c3cc(OC)c(OC)c(OC)c3)C(c3ccc(Cl)cc3)C2)cc1OC (configuration not stated)	2.34 µM	> 100 µM	0.535 µM	> 100 µM	5.78 µM	> 90.1 µM	2.27 µM	> 68.3 µM	3.59 µM	> 42.4 µM	0.464 µM	1.71 µM	4.15 µM	44 µM	3.63 µM	> 81.6 µM		> 57.7 µM	1.77 µM	> 100 µM
COC(=O)[C@]12CC[C@@H](C)[C@H](C)[C@@H]1C1=CC[C@@H]3[C@@]4(C)C(C=O)=C[C@@](C)(COC(=O)c5ccco5)[C@@H]4C(=O)C[C@@]3(C)[C@]1(C)CC2	2.42 µM	12.6 µM	2.06 µM	6.68 µM	4.33 µM	> 100 µM	4.97 µM	> 100 µM	9.68 µM	> 100 µM	5.75 µM	> 100 µM	6.15 µM	> 100 µM	11.7 µM	> 100 µM	2.63 µM	12.6 µM	4.26 µM	> 100 µM
Cc1ccc(Nc2n[nH]c(=S)s2)cc1		> 100 µM		> 100 µM		> 100 µM		> 100 µM		> 100 µM		> 100 µM		> 100 µM		> 100 µM		> 100 µM		> 100 µM
CN(C)c1ccc(/C=C(\C#N)c2nc3ccccc3n2C)cc1	3.36 µM	16 µM	2.85 µM	14.7 µM	4.51 µM	> 88.5 µM	5.41 µM	> 100 µM	2.84 µM	> 26.5 µM	1.33 µM	3.73 µM	7.27 µM	> 100 µM	3.24 µM	67.9 µM	9.22 µM	> 81.3 µM	1.59 µM	18.4 µM
O=[N+]([O-])c1ccc2c(N3CCC(CCCC4CCN(c5ncnc6cc([N+](=O)[O-])ccc56)CC4)CC3)ncnc2c1	44.7 µM	> 100 µM	0.388 µM	96.9 µM	2.29 µM	> 100 µM	> 47.1 µM	> 100 µM	> 46.3 µM	> 100 µM	21.6 µM	> 100 µM	> 42.3 µM	> 100 µM	> 58.7 µM	> 100 µM	9.47 µM	> 75.3 µM	> 56.7 µM	> 100 µM
Oc1c(CN2CCCC2)cc(COCc2ccc(Br)cc2)c2cccnc12	0.443 µM	2.65 µM	1.12 µM	4.02 µM	0.969 µM	3.33 µM	0.851 µM	2.37 µM	2.82 µM	17.1 µM	0.413 µM	1.87 µM	1.02 µM	15.4 µM	0.474 µM	10.3 µM	1.05 µM	2.96 µM	0.621 µM	11.3 µM
CN(N=O)C(=O)N[C@@H](C=O)[C@@H](O)[C@H](O)[C@H](O)CO	> 750 µM	522 µM and > 750 µM	> 750 µM	612 µM and > 750 µM	> 750 µM	> 750 µM		> 750 µM		> 750 µM		670 µM	> 750 µM	> 750 µM		> 750 µM	> 750 µM	> 750 µM	> 750 µM	> 750 µM
CN(C)c1ccc(/C=C2\N=C(c3ccc([N+](=O)[O-])cc3)OC2=O)cc1		97.9 µM		> 100 µM		> 100 µM		> 100 µM		> 100 µM		> 100 µM		> 100 µM		> 100 µM		> 100 µM		> 100 µM
CC(=O)c1c(C)n(C)c2c1nnc1ccccc12		> 100 µM		> 100 µM		> 100 µM		> 100 µM		> 100 µM		> 100 µM		> 100 µM		> 100 µM		> 100 µM		> 100 µM
CC(C)(C#N)c1cc(F)cc(C(=O)Nc2cc(Nc3ncccc3-c3ncnc4nc[nH]c34)ccc2F)c1	3.91 µM	> 10 µM	1.92 µM	> 10 µM	0.501 µM	> 10 µM	0.306 µM	4.8 µM	1.41 µM	> 10 µM	5.5 µM	> 10 µM	4.44 µM	> 10 µM	> 10 µM	> 10 µM	0.804 µM	> 10 µM	1.73 µM	> 10 µM
CNC(=O)c1ccc2cc(C3(O)CCn4cncc43)ccc2c1 (configuration not stated)	> 100 µM	> 100 µM	> 100 µM	> 100 µM	> 100 µM	> 100 µM	> 100 µM	> 100 µM	> 100 µM	> 100 µM	> 100 µM	> 100 µM	> 100 µM	> 100 µM	> 100 µM	> 100 µM	> 100 µM	> 100 µM	> 100 µM	> 100 µM
C/C1=C/C2=CC(C)C[C@@H]2C(=O)[C@]2(C)C(=O)CC(C)(C)[C@H]2CC1=O (some centres not stated)		> 50 µM		> 50 µM		> 50 µM		> 50 µM		> 50 µM		> 50 µM		> 50 µM		> 50 µM		> 50 µM		> 50 µM
c1ccc(-c2cc(C3CO3)c3ccccc3n2)cc1 (configuration not stated)		> 100 µM		58.1 µM		37.5 µM		51.7 µM		83.9 µM		33.7 µM		95.5 µM		53.4 µM		43.1 µM		33 µM
COc1ccc2c(c1)C(=O)C(=O)c1cc(O)c(OC)c(OC)c1-2	0.451 µM	2.65 µM and 2.92 µM	1.56 µM	2.67 µM and 3.81 µM	1.77 µM	1.77 µM and 4.23 µM	2.1 µM	1.91 µM and 3.87 µM	2.79 µM	2.78 µM and 8.57 µM	1.65 µM	3.63 µM and 3.11 µM	1.85 µM	2.38 µM and 3.28 µM	1.69 µM	1.77 µM and 3.05 µM	1.95 µM	14.3 µM and 3.9 µM		3.28 µM
